Legend:
[1] = system: HT-29, RPMI-7951, and MDA-MB-231 cells; design: method as in PMID 33799442; conditions: nontoxic concentrations; cited from earlier work
PC3-DR cells [2] = assay: cells; conditions: Homo sapiens, 48 h
Protocol: Viability was evaluated using MTT assay, and IC50s were calculated using GraphPad Prism software. Number of biological replicates n = 3. […] Cells (6 × 10^3 cells/well in 100 μL/well of media) were plated in 96-well plates. The plates were incubated overnight, and the medium was replaced with fresh medium containing drugs at the indicated concentrations. The plates were further incubated for 48 h, unless otherwise stated, the solution of MTT reagent in PBS was added to each well, and cells were incubated for another 2–4 h to form formazan crystals. Then the media was removed and the plates were dried overnight. 50 μL of DMSO was added to each well to dissolve the formazan crystals. The absorbance of each well was measured using an Infinite F200PRO reader (TECAN, Männedorf, Switzerland). The cell viability was estimated as an inhibition concentration (IC50), which was calculated using GraphPad Prism software v.9.1.1 (GraphPad Software, San Diego, CA, USA). IC₅₀ values were determined by fitting the data to a nonlinear regression model (log[inhibitor] versus normalized response—variable slope).

RWPE-1 cells = assay: MTT cytotoxicity assay; format: cell-based, human; conditions: Homo sapiens; RWPE-1, 48 h, mean ± SD
Source text: (§1) The cell lines were purchased from ATCC (Manassas, VA, USA) or ECACC (Salisbury, UK). The following cell lines were used: Human prostate cancer cells LNCaP (ATCC; RRID:CVCL_0395), VCaP (ECACC; RRID:CVCL_2235), 22Rv1 (ATCC; RRID:CVCL_1045), PC3 (ATCC; RRID:CVCL_0035), and DU145 (ATCC; RRID:CVCL_0105); human prostate non-cancer cells PNT2 (ATCC; RRID:CVCL_2164) and RWPE-01 (ATCC; RRID:CVCL_3791). Human non-cancer embryonic kidney cells HEK293T (ECACC; RRID:CVCL_0063) and human fibroblast cells MRC-9 (ECACC; RRID:CVCL_2629). The docetaxel-resistant cells PC3-DR were generated by long-term treatment of human prostate cancer PC3 cells with sublethal concentrations of docetaxel as previously described[32] and were provided by Prof. Z. Culig (Innsbruck Medical University, Austria). All cell lines were recently authenticated by a commercial service (Multiplexion GmbH, Heidelberg, Germany) and were cultured as previously described[58],[59]. Cells were kept in culture for a maximum of three months and were routinely examined for bacterial, fungal, and mycoplasma infections.

HEK293T cells = assay: MTT cytotoxicity assay; format: cell-based, human; conditions: Homo sapiens, HEK-293T, 48 h, mean ± SD
Source text: as §1

22Rv1 cells [3] = assay: MTT cytotoxicity assay; format: cell-based, human; conditions: Homo sapiens; 22Rv1, 48 h, mean ± SD
Source text: as §1

VCaP cells = assay: MTT cytotoxicity assay; format: cell-based, human; conditions: Homo sapiens, 48 h, mean ± SD
Source text: as §1

PNT2 cells = assay: MTT cytotoxicity assay; format: cell-based, human; conditions: Homo sapiens; PNT2, 48 h, mean ± SD
Source text: as §1

DU145 cells = assay: MTT cytotoxicity assay; format: cell-based, human; conditions: Homo sapiens, DU-145; DU145, 48 h, mean ± SD
Source text: as §1

PC3 cells = assay: MTT cytotoxicity assay; format: cell-based, human; conditions: Homo sapiens, PC-3; PC3, 48 h, mean ± SD
Source text: as §1

LNCaP cells = assay: MTT cytotoxicity assay; format: cell-based, human; conditions: Homo sapiens, 48 h, mean ± SD
Source text: as §1

MRC-9 cells = assay: MTT cytotoxicity assay; format: cell-based, human; conditions: Homo sapiens, MRC9; MRC-9, 48 h, mean ± SD
Source text: as §1

PC3-DR cells [4] = assay: MTT cytotoxicity assay; format: cell-based, human; conditions: Homo sapiens, 48 h, mean ± SD
Source text: as §1

22Rv1 cells [5] = assay: Western blotting of apoptotic markers; format: cell-based, human
Protocol: Fig. 3 Functional kinome profiling of STKs (serine/threonine kinases) in 22Rv1 cells and validation of results. (a) Expression of apoptotic markers. The cells were treated with CuC1 for the indicated time, and the expression of proteins was analyzed by Western blotting. (b, c) Functional kinome profiling. A heatmap displaying log2-transformed phosphorylation levels of 99 analyzed STK substrate peptides (b) and upstream kinase analysis, which predicted kinases affected by CuC1 (c). Values of the normalized kinase statistics represented by bars, where log2 < 0 indicates decreased kinase activity and log2 > 0 denotes increased activity. […] 22Rv1 cells were treated with CuC1 for 2 h and the MAPK expression was analyzed by Western blotting. β-actin was used as a loading control. The band intensity of the protein of interest was quantified using Image Lab software and normalized to the band intensity β-actin (a), or to the band intensity of non-phospho MAPK (d), and is indicated by red numbers. […]
Western blotting was performed as previously described. […] Proteins were transferred on a PVDF membrane and detected using specified primary and secondary antibodies. The protein signals were visualized and detected using the ECL chemiluminescence system (Thermo Scientific, Rockford, IL, USA). […] The signal (band) intensity was quantified using Image Lab v. […]

## CO[C@@H]1[C@@H](O)[C@H](O[C@@H]2[C@@H](O)[C@H](O[C@H]3[C@H](O)[C@@H](O[C@@H]4OC[C@@H](O)[C@H](O)[C@H]4O)[C@H](O[C@H]4[C@H](O[C@H]5CC[C@]6(C)[C@@H]7CCC89C(=O)O[C@@](C)(/C=C\C=C(C)C)[C@H]8[C@@H](OC(C)=O)C[C@@]9(C)C7=CC[C@H]6C5(C)C)OC[C@@H](O)[C@@H]4O)O[C@@H]3C)O[C@H](CO)[C@H]2O)OC[C@H]1O (some centres unmarked) [CuC1, cucumarioside C1]
[1]
  colony formation: strongly suppressed the colony formation
PC3-DR cells [2]
  IC50: 5690 ± 330 nM
RWPE-1 cells
  IC50: 554 ± 105 nM
HEK293T cells
  IC50: 660 ± 50 nM
22Rv1 cells [3]
  IC50: 246 ± 17 nM
VCaP cells
  IC50: 472 ± 65 nM
PNT2 cells
  IC50: 754 ± 58 nM
DU145 cells
  IC50: 3240 ± 340 nM
PC3 cells
  IC50: 1590 ± 120 nM
LNCaP cells
  IC50: 3000 ± 540 nM
MRC-9 cells
  IC50: 959 ± 248 nM
PC3-DR cells [4]
  IC50: 5690 ± 780 nM
22Rv1 cells [5]; 22Rv1, 0.5 μM, 2 h
  signs of cell death (apoptotic markers): did not induce any signs of cell death
22Rv1 cells [5]; 22Rv1, 24 h of treatment
  apoptotic markers: apoptotic markers such as cleaved PARP and caspase-3 were detected

Reference: article PMC12322260, “Anticancer activity of triterpene glycosides from the sea star Solaster pacificus” (Scientific Reports, 2025)
